This passage reports MIC results from ChEMBL document CHEMBL3352071, “Benzimidazoles: novel mycobacterial gyrase inhibitors from scaffold morphing” (ACS Med Chem Lett, 2014).

In brackets after ≈: the same amount, converted by molar mass.

By MIC is commonly meant the smallest concentration in the dilution series that meets the test's criterion for growth inhibition. Low readings indicate inhibition by little substance, high ones a need for much substance.

Holding throughout (format): functional
The test system of assay [1] is Mycobacterium tuberculosis. Put plainly: Antimicrobial activity against moxicillin resistant Mycobacterium tuberculosis H37Rv ATCC 27294 containing DNA gyrase G88N mutant.
In assay [2] the test system is Mycobacterium tuberculosis. Put plainly: Antimicrobial activity against 2-oxo-1-(2-(4-((3-oxo-3,4-dihydro-2H-pyrido[3,2-b][1,4]oxazin-6-yl)methylamino)piperidin-1-yl)ethyl)-1,2-dihydroquinoline-7-carbonitrile resistant Mycobacterium tuberculosis H37Rv ATCC 27294 containing DNA gyrase A74V mutant.
Assay [3] relates to Mycobacterium tuberculosis. Nature of the assay: Antimicrobial activity against 5-(((3S,4R)-3-fluoro-1-(2-(7-methoxy-2-oxo-1,5-naphthyridin-1(2H)-yl)ethyl)piperidin-4-ylamino)methyl)-2-methylnicotinonitrile resistant Mycobacterium tuberculosis H37Rv ATCC 27294 containing DNA gyrase D89N mutant.

In the case of `N#Cc1ccc2ccc(=O)n(CCN3CCC(NCc4ccc5c(n4)NC(=O)CO5)CC3)c2c1`, the minimum inhibitory concentration (MIC) is less than 0.19 µM in assay [1], 4 µM (≈ 1.83 µg/mL) in assay [2] and more than 100 µM in assay [3].
Regarding `COc1cnc2ccc(=O)n(CCN3CCC(c4nc5cc(C(F)(F)F)ccc5[nH]4)CC3)c2c1`, the MIC in assay [1] amounted to 0.78 µM (≈ 0.368 µg/mL); in assay [2] it was 50 µM (≈ 23.6 µg/mL); in assay [3], 25 µM (≈ 11.8 µg/mL).
For `COc1cnc2ccc(=O)n(CCN3CCC(c4nc5cc(Cl)c(F)cc5[nH]4)CC3)c2c1` the same measures were 0.06 µM (≈ 0.0274 µg/mL), 100 µM (≈ 45.6 µg/mL) and 25 µM (≈ 11.4 µg/mL).
In the case of `COc1cnc2ccc(=O)n(CCN3CCC(c4nc5cc(C#N)c(C)cc5[nH]4)CC3)c2c1`, the results for the MIC in assay [1], in assay [2] and in assay [3] were 0.78 µM (≈ 0.345 µg/mL), more than 100 µM and 100 µM (≈ 44.3 µg/mL), respectively.
Consider `COc1cnc2ccc(=O)n(CCN3CCN(c4nc5cc(C#N)c(C)cc5[nH]4)CC3)c2c1`, for which the MIC in assay [1] is 1.56 µM (≈ 0.692 µg/mL); in assay [2] it was more than 100 µM; in assay [3], 100 µM (≈ 44.4 µg/mL).
Consider `NS(=O)(=O)c1ccc(Oc2cnc3ccc(=O)n(CCN4CCC(c5nc6cc(C(F)(F)F)ccc6[nH]5)CC4)c3c2)cc1`, for which the MIC in assay [1] worked out at 0.39 µM (≈ 0.239 µg/mL); in assay [2] it was 25 µM (≈ 15.3 µg/mL); in assay [3] it was 12.5 µM (≈ 7.66 µg/mL).
With `O=c1ccc2ncc(F)cc2n1CCN1CCC(NCc2ccc(C(F)(F)F)nc2)CC1`, the MIC in assay [1] is less than 0.19 µM; in assay [2], 2 µM (≈ 0.899 µg/mL); in assay [3], more than 100 µM.
For `O=C(O)c1cn(C2CC2)c2cc(N3CCNCC3)c(F)cc2c1=O` [CIPROFLOXACIN] the same measures were 8 µM (≈ 2.65 µg/mL), 0.5 µM (≈ 0.166 µg/mL) and 16 µM (≈ 5.3 µg/mL).
In the case of `NNC(=O)c1ccncc1` [ISONIAZID], the MIC in assay [1] is 0.06 µM (≈ 0.00823 µg/mL); in assay [2] it was 0.06 µM (≈ 0.00823 µg/mL); in assay [3], 0.03 µM (≈ 0.00411 µg/mL).
`COc1c(N2C[C@@H]3CCCN[C@@H]3C2)c(F)cc2c(=O)c(C(=O)O)cn(C3CC3)c12` [MOXIFLOXACIN]: the figures for the MIC in assay [1], in assay [2] and in assay [3] were 4 µM (≈ 1.61 µg/mL), 0.25 µM (≈ 0.1 µg/mL) and 2 µM (≈ 0.803 µg/mL), respectively.
Consider `CO[C@H]1/C=C/O[C@@]2(C)Oc3c(C)c(O)c4c(O)c(c(/C=N/N5CCN(C)CC5)c(O)c4c3C2=O)NC(=O)/C(C)=C\C=C\[C@H](C)[C@H](O)[C@@H](C)[C@@H](O)[C@@H](C)[C@H](OC(C)=O)[C@@H]1C` [RIFAMPIN], for which the MIC in assay [1] and in assay [2] was 0.008 µM (≈ 0.00658 µg/mL) in each case.
